Data published in patent EP4050002A1, “ANTI-PROLIFERATIVE AGENTS” (First Health Pharmaceuticals B.V., priority 2021, dated 2022).

How the values were obtained:
[1] = Tissue distribution after single I.P. administration; assay type: in vivo, male Swiss Albino Mice
Experimental: The pharmacokinetic study was performed in male Swiss albino mice from Hylasco Biotechnology Pvt. Ltd. (A Charles River technology Licensee). The tissue distribution study was performed in male Swiss albino mice and in male FOXN1^nu/nu nude mice (Envigo spa). The efficacy study was performed in male FOXN1^nu/nu nude mice.
Single intraperitoneal administration studies were done as follows: • 1. Compound 5 • dose 1: 45 mg/kg • dose concentration: […] in 10% DMSO, 5% TWEEN 80 and WFI (85%) • volume: 5 ml/kg • blood withdrawal time points: 0.25, 0.5, 1, 2, 4, 6, 8, 24 hours post administration • brain, liver and lungs collected at 4, 8 and 24 hours • 2. Compound 5 • dose 2: 10 mg/kg • dose concentration: 2 mg/ml in 10% DMSO, 10% Solutol and WFI (90%). • volume: 5 ml/kg • blood withdrawal time points: 0.25, 0.5, 1, 2, 4, 6, 8, 24 hours post administration
Selected organs were collected at 4, 8 and 24 hours for drug distribution studies: mice were anesthetized and intra-cardiac whole body perfusion was performed using chilled saline. Separated tissues were immediately washed, dried, weighed and frozen at -80±10°C until homogenization. The levels of compound in the tissues and in plasma were quantified by LC-MS/MS, using as instrument Q-TRAP 500, with a column Phenomenex, KINETEX 5µ EVO C18 50 mm X 4.5 mm (Phenomenex). The mobile phase employed was composed as follows: aqueous reservoir, 10 mM Ammonium Acetate with 0.1% Formic acid in MilliQ water; organic reservoir, Acetonitrile:Methanol (50:50, v/v); flow rate 1 ml/min; injection volume 10µl; rinsing solution, Acetonitrile:Methanol:Water (20:60:20, v/v).
Distribution to tissues is expressed as ratio between the compound level in tissues (ng compounds/ mg tissue) divided by the compound levels in blood (ng/ml), considering 1 ml of blood equal to […].

PBMC = assay: Cytotoxicity in primary cells, ATP-based method; assay type: cell-based, human
Experimental: (§1) The non-specific toxicity of the compounds is evaluated in non-tumor immortalized cells with cell count and / or MTS methods, and in primary Peripheral Blood Mononuclear Cells (PBMC) with the ATP-based method.
Primary human Peripheral Blood Mononuclear Cells (PBMC) are incubated at 37°C and 5% CO2 for the viability assay with CellTiter Glo 2.0 kit, an ATP-based method (Promega, Catalog number: G9241). 48 h prior to the assay, 2 µg/ml of phytohemagglutinin-A (PHA) are added to PBMC culture and cells are incubated for 48 h at 37°C and 5% CO2. PBMC are centrifuged at 300 G for 10 minutes, then re-suspended in growth medium and plated at density of 6 x 10^4 cells/well. […]
PBMC incubated with the same amount of DMSO present in the compound dilutions are used as control. After the incubation, 50 µl of cell cultures from each well are transferred in a luminescence plate after vigorous pipetting and 50 µl of CellTiter Glo 2.0 are added in each well, then the plate is incubated in the Glomax Discovery Reader (Promega, Catalog number: GM3000) following the instructions. Relative luminescence units (RLU) calculated in each well is elaborated with GraphPad software: 100% viability is determined as the mean RLU value measured in the wells containing untreated PBMCs. IC50 was calculated by GraphPad Prism 8.0 software.

MCF10a = assay: Cytotoxicity in non-tumor cells, cell count method; assay type: cell-based, human
Experimental: as §1
Cells were seeded at 3 to 5 x 10^4 cells/well density depending on cell lines and maintained at 37°C in 5% CO2. After 24 hours cells were treated with ascending concentrations of the investigational compounds and the reference (5-fluoro-Uracyl) in a range from 0 to 100 µM. Compounds were dissolved in DMSO which final concentration in each well was 0.5% v:v. After 72 h of incubation with compounds, the cells were detached with trypsin and re-suspended in 1 ml of complete medium; the cell number was evaluated using a Z2 Coulter Counter ("cell count method") (Attallah and Johnson, A simple highly sensitive methods for the determination of cell viability using an electronic particle analyzer, Coulter counter J. Immunol. Methods. 1981, 41, 155; Leonardi et al., Activated kinase screening identifies the IKBKE oncogene as a positive regulator of autophagy. Autophagy, 2019, 15, 312). Alternatively, after the 72 hours of incubation with compounds, the MTS solution (CellTiter 96® AQueous One Solution Cell Proliferation Assay) is added to each well and absorbance at 490 nm wavelength is read after 2 hours of incubation ("MTS method"). […]

[2] = 4 hours after single administration I.P. 45 mg/Kg
[3] = 8 hours after single administration I.P. 45 mg/Kg
[4] = 24 hours after single administration I.P. 45 mg/Kg

Question: With `CCCCc1cn(-c2ccc(-c3nnc(-c4ccccc4C(F)(F)F)o3)cc2)nn1` [Compound 5] as the compound, how does the Liver to plasma [1, 2] read?
Answer: 11.2

Question: What about the Plasma [1, 2] of the same compound?
Answer: 2171 ng/mL

Question: And the Liver to plasma [1, 3]?
Answer: 9.2

Question: And the Plasma [1, 3]?
Answer: 775 ng/mL

Question: What about the Liver to plasma [1, 4] of the same compound?
Answer: 9.2

Question: And the Plasma [1, 4]?
Answer: 273 ng/mL

Question: And the Kp at 4 h ([1]; mouse, brain, ip, 4 hours after single administration I.P. 45 mg/Kg, read-out: Brain to plasma)?
Answer: 2.4

Question: What about the Kp at 8 h ([1]; mouse, brain, ip, 8 hours after single administration I.P. 45 mg/Kg, read-out: Brain to plasma) of the same compound?
Answer: 2.1

Question: And the Kp at 24 h ([1]; mouse, brain, ip, 24 hours after single administration I.P. 45 mg/Kg, read-out: Brain to plasma)?
Answer: 1.75

Question: And the IC50 (PBMC; Homo sapiens, PBMC, 72 hours of incubation, ATP-based method)?
Answer: 200 µM

Question: What about the toxicity (PBMC; primary human cells (Table 16)) of the same compound?
Answer: above 100 µM

Question: And the IC50 (MCF10a; Homo sapiens, MCF-10A, MCF10a, 72 hours of incubation, cell count method)?
Answer: 440 µM

Question: What about the toxicity (MCF10a; non tumor cell lines (Table 17)) of the same compound?
Answer: above 100 µM
